Source: patent US4692443A, “3-bicyclicpyridinium-methyl cephalosporins” (Eli Lilly and Company, priority 1984, dated 1987)
Values after ≈ are worked out from the molar mass of the structure shown. Read-outs that look alike come from different tables or passages of the source.

Legend:
Assay type in all cases: cell-based
Salmonella X514 = assay: standard in vitro agar dilution assay (MIC)
Strep. PN PARK = assay: standard in vitro agar dilution assay (MIC); details: Strep. PN strain PARK
H. influ. 76 = assay: standard in vitro agar dilution assay (MIC); details: H. influ. strain 76; read-out: Agar Dilution MIC
Strep. D 9960 = assay: standard in vitro agar dilution assay (MIC); details: Strep. D strain 9960
Strep. A C203 = assay: standard in vitro agar dilution assay (MIC); details: Strep. A strain C203
Serratia X99 = assay: standard in vitro agar dilution assay (MIC); details: Serratia strain X99; read-out: Agar Dilution MIC
Staph. aureus S13E = assay: microbe, parasite or virus in culture; details: Staphylococcus aureus, read-out: Agar Dilution MIC
H. influ. C.L. = assay: standard in vitro agar dilution assay (MIC); details: H. influ. strain C.L.; read-out: Agar Dilution MIC
Klebsiella KAE = assay: standard in vitro agar dilution assay (MIC); details: read-out: Agar Dilution MIC
Pseudomonas X239 = assay: standard in vitro agar dilution assay (MIC); details: Pseudomonas strain X239
Pseudomonas X528 = assay: standard in vitro agar dilution assay (MIC); details: Pseudomonas strain X528
Source text: The antibacterial activity of several representative compounds of the invention has been evaluated in standard in vitro agar dilution assays. The following Table presents typical minimum inhibitory concentrations (MIC's) in μg /ml for exemplary compounds when evaluated against typical Gram + and Gram - microorganism.

E. coli EC14 = assay: standard in vitro agar dilution assay (MIC); details: Escherichia coli; E. coli strain EC14; read-out: Agar Dilution MIC
Klebsiella X68 = assay: standard in vitro agar dilution assay (MIC); details: Klebsiella strain X68; read-out: Agar Dilution MIC
E. coli N10 = assay: standard in vitro agar dilution assay (MIC); details: Escherichia coli
[1] = test system: Enterobacter aerogenes C32; assay: standard in vitro agar dilution assay (MIC); details: Klebsiella aerogenes
Klebsiella X26 = assay: standard in vitro agar dilution assay (MIC); details: Klebsiella strain X26; read-out: Agar Dilution MIC
Staph. epi 222 = assay: standard in vitro agar dilution assay (MIC); details: Staph. epi strain 222
Staph. aureus V41 = assay: standard in vitro agar dilution assay (MIC); details: Staphylococcus aureus
Staph. aureus X1.1 = assay: standard in vitro agar dilution assay (MIC); details: Staphylococcus aureus; Staph. aureus strain X1.1; read-out: Agar Dilution MIC
E. coli TEM = assay: standard in vitro agar dilution assay (MIC); details: Escherichia coli; E. coli strain TEM; read-out: Agar Dilution MIC
Staph. epi EPI1 = assay: standard in vitro agar dilution assay (MIC); details: Staph. epi strain EPI1
Staph. aureus X400 = assay: standard in vitro agar dilution assay (MIC); details: Staphylococcus aureus; Staph. aureus strain X400
Strep. D X66 = assay: standard in vitro agar dilution assay (MIC); details: Strep. D strain X66
Enterobacter cloacae EB5 = assay: standard in vitro agar dilution assay (MIC); details: Enterobacter cloacae strain EB5; read-out: Agar Dilution MIC
[2] = Salmonella strain X514, read-out: Agar Dilution MIC
[3] = E. coli strain N10, read-out: Agar Dilution MIC
[4] = Enterobacter aerogenes strain C32, read-out: Agar Dilution MIC
[5] = Staph. aureus strain V41, read-out: Agar Dilution MIC

Compound | MIC (Salmonella X514; [2]) [µg/mL] | MIC (Strep. PN PARK) [µg/mL] | MIC (Strep. D 9960) [µg/mL] | MIC (Strep. A C203) [µg/mL] | MIC (Staph. aureus S13E) [µg/mL] | MIC (Klebsiella KAE; Klebsiella strain KAE) [µg/mL] | MIC (Pseudomonas X239) [µg/mL] | MIC (Pseudomonas X528) [µg/mL] | MIC (E. coli EC14) [µg/mL] | MIC (Klebsiella X68) [µg/mL] | MIC (E. coli N10; [3]) [µg/mL] | MIC [1, 4] [µg/mL] | MIC (Klebsiella X26) [µg/mL] | MIC (Staph. epi 222) [µg/mL] | MIC (Staph. aureus V41; [5]) [µg/mL] | MIC (Staph. aureus X1.1) [µg/mL] | MIC (E. coli TEM) [µg/mL] | MIC (Staph. epi EPI1) [µg/mL] | MIC (Staph. aureus X400) [µg/mL] | MIC (Strep. D X66) [µg/mL] | also measured
CO/N=C(\C(=O)NC1C(=O)N2C(C(=O)[O-])=C(C[n+]3ccc4[nH]cnc4c3)CSC12)c1csc(N)n1 (stereo not drawn) [Example 2, syn-7-[2-(2-Aminotiazol-4-yl)-2-methoxyiminoacetamido]-3-(1H-imidazolo[4,5-c]pyridinium-5-ylmethyl)-3-cephem-4-carboxylate] | < 0.008 | < 0.008 | 2 (≈ 3.89 µM) | < 0.008 | 8 (≈ 15.5 µM) | 4 (≈ 7.77 µM) | 2 (≈ 3.89 µM) | 1 (≈ 1.94 µM) | < 0.008 | < 0.008 | 0.015 (≈ 0.0292 µM) | 0.03 (≈ 0.0583 µM) | < 0.008 | 1 (≈ 1.94 µM) | 8 (≈ 15.5 µM) | 1 (≈ 1.94 µM) | < 0.008 | 4 (≈ 7.77 µM) | 64 (≈ 124 µM) |  | MIC (H. influ. 76): 0.015 µg/mL (≈ 0.0292 µM); MIC (Serratia X99): 0.015 µg/mL (≈ 0.0292 µM); MIC (H. influ. C.L.): 0.015 µg/mL (≈ 0.0292 µM)
CO/N=C(\C(=O)NC1C(=O)N2C(C(=O)[O-])=C(C[n+]3ccc4scnc4c3)CSC12)c1csc(N)n1 (stereo not drawn) [Example 12, syn-7-[2-(2-aminothiazol-4-yl)-2-methoxyiminoacetamido]-3-(thiazolo[4,5-c]pyridinium-5-ylmethyl)-3-cephem-4-carboxylate] | 0.03 (≈ 0.0564 µM) | 0.015 (≈ 0.0282 µM) | 4 (≈ 7.52 µM) | 0.015 (≈ 0.0282 µM) | 8 (≈ 15 µM) | 4 (≈ 7.52 µM) | 2 (≈ 3.76 µM) | 1 (≈ 1.88 µM) | 0.015 (≈ 0.0282 µM) | 0.03 (≈ 0.0564 µM) | 0.03 (≈ 0.0564 µM) | 0.03 (≈ 0.0564 µM) | 0.015 (≈ 0.0282 µM) |  | 2 (≈ 3.76 µM) | 1 (≈ 1.88 µM) |  | 2 (≈ 3.76 µM) | 2 (≈ 3.76 µM) | 128 (≈ 241 µM) | 
CC(C)(O/N=C(\C(=O)N[C@@H]1C(=O)N2C(C(=O)[O-])=C(C[n+]3ccccc3)CS[C@H]12)c1csc(N)n1)C(=O)O [Ceftazidime, ceftazidime, reference compound] |  |  | 16 (≈ 29.3 µM) |  | 32 (≈ 58.5 µM) |  | 2 (≈ 3.66 µM) | 2 (≈ 3.66 µM) |  |  |  |  |  | 16 (≈ 29.3 µM) |  | 8 (≈ 14.6 µM) |  | 16 (≈ 29.3 µM) | 128 (≈ 234 µM) | > 128 | MIC (Klebsiella KAE; Klebsiella): 0.5 µg/mL (≈ 0.915 µM); MIC (E. coli N10; N10, read-out: Agar Dilution MIC): 0.25 µg/mL (≈ 0.457 µM); MIC ([1]; C32, read-out: Agar Dilution MIC): 0.25 µg/mL (≈ 0.457 µM); MIC (Staph. aureus V41; V41, read-out: Agar Dilution MIC): 32 µg/mL (≈ 58.5 µM)
CO/N=C(\C(=O)NC1C(=O)N2C(C(=O)[O-])=C(C[n+]3ccc4ncn(C)c4c3)CSC12)c1csc(N)n1 (stereo not drawn) [Example 3, syn-7-[2-(2-Aminothiazol-4-yl)-2-methoxyiminoacetamido]-3-(3-methyl-3H-imidazolo[4,5-c]pyridinium-5-ylmethyl)-3-cephem-4-carboxylate] | < 0.008 | < 0.008 | 4 (≈ 7.57 µM) | < 0.008 | 4 (≈ 7.57 µM) | 4 (≈ 7.57 µM) | 2 (≈ 3.78 µM) | 1 (≈ 1.89 µM) | < 0.008 | 0.03 (≈ 0.0568 µM) |  |  | < 0.008 | 1 (≈ 1.89 µM) | 4 (≈ 7.57 µM) | 1 (≈ 1.89 µM) | < 0.008 | 2 (≈ 3.78 µM) | 64 (≈ 121 µM) | > 128 | 
CO/N=C(\C(=O)NC1C(=O)N2C(C(=O)[O-])=C(C[n+]3ccc4c(c3)ncn4C)CSC12)c1csc(N)n1 (stereo not drawn) [Example 4, syn-7-[2-(2-aminothiazol-4-yl)-2-methoxyiminoacetamido]-3-(1-methyl-1H-imidazolo[4,5-c]pyridinium-5-ylmethyl)-3-cephem-4-carboxylate] |  | 0.15 (≈ 0.284 µM) | 2 (≈ 3.78 µM) | 0.15 (≈ 0.284 µM) | 8 (≈ 15.1 µM) | 4 (≈ 7.57 µM) | 2 (≈ 3.78 µM) | 1 (≈ 1.89 µM) | < 0.008 | 0.015 (≈ 0.0284 µM) | 0.03 (≈ 0.0568 µM) | 0.03 (≈ 0.0568 µM) | 0.015 (≈ 0.0284 µM) | 1 (≈ 1.89 µM) | 8 (≈ 15.1 µM) | 1 (≈ 1.89 µM) | 0.015 (≈ 0.0284 µM) | 2 (≈ 3.78 µM) | 64 (≈ 121 µM) | > 128 | MIC (Salmonella X514; Salmonella, X514, read-out: Agar Dilution MIC): 0.05 µg/mL (≈ 0.0946 µM); MIC (Enterobacter cloacae EB5): 0.03 µg/mL (≈ 0.0568 µM)
CO/N=C(\C(=O)NC1C(=O)N2C(C(=O)[O-])=C(C[n+]3ccc4[nH]c(C)nc4c3)CSC12)c1csc(N)n1 (stereo not drawn) [Example 5, syn-7-[2-(2-aminothiazol-4-yl)-2-methoxyiminoacetamido]-3-(2-methyl-1H-imidazolo[4,5-c]pyridinium-5-ylmethyl)-3-cephem-4-carboxylate] | < 0.008 | < 0.008 | 8 (≈ 15.1 µM) | < 0.008 | 8 (≈ 15.1 µM) | 2 (≈ 3.78 µM) | 2 (≈ 3.78 µM) | 2 (≈ 3.78 µM) | < 0.008 | 0.015 (≈ 0.0284 µM) | 0.03 (≈ 0.0568 µM) | 0.03 (≈ 0.0568 µM) | < 0.008 | 1 (≈ 1.89 µM) | 8 (≈ 15.1 µM) | 2 (≈ 3.78 µM) | < 0.008 | 4 (≈ 7.57 µM) | 32 (≈ 60.5 µM) | > 128 | MIC (H. influ. 76): 0.015 µg/mL (≈ 0.0284 µM); MIC (Serratia X99): 0.03 µg/mL (≈ 0.0568 µM); MIC (H. influ. C.L.): 0.015 µg/mL (≈ 0.0284 µM)
CO/N=C(\C(=O)NC1C(=O)N2C(C(=O)[O-])=C(C[n+]3ccc4nc(C)n(C)c4c3)CSC12)c1csc(N)n1 (stereo not drawn) [Example 7, syn-7-[2-(2-aminothiazol-4-yl)-2-methoxyiminoacetamido]-3-(2,3-dimethyl-3H-imidazolo[4,5-c]pyridinium-5-ylmethyl)-3-cephem-4-carboxylate] |  |  | 4 (≈ 7.37 µM) | 0.015 (≈ 0.0276 µM) |  | 2 (≈ 3.69 µM) |  |  | 0.015 (≈ 0.0276 µM) | 0.03 (≈ 0.0553 µM) | 0.03 (≈ 0.0553 µM) |  | 0.015 (≈ 0.0276 µM) | 2 (≈ 3.69 µM) |  | 2 (≈ 3.69 µM) | 0.015 (≈ 0.0276 µM) | 4 (≈ 7.37 µM) | 128 (≈ 236 µM) | > 128 | MIC (H. influ. 76): 0.03 µg/mL (≈ 0.0553 µM)
CO/N=C(\C(=O)NC1C(=O)N2C(C(=O)[O-])=C(C[n+]3ccc4c(c3)nc(C)n4C)CSC12)c1csc(N)n1 (stereo not drawn) [Example 6, syn-7-[2-(2-aminothiazol-4-yl)-2-methoxyiminoacetamido]-3-(1,2-dimethyl-1H-imidazolo[4,5-c]pyridinium-5-ylmethyl)-3-cephem-4-carboxylate] | 0.03 (≈ 0.0553 µM) | < 0.008 | 4 (≈ 7.37 µM) | < 0.008 | 8 (≈ 14.7 µM) | 2 (≈ 3.69 µM) | 4 (≈ 7.37 µM) | 4 (≈ 7.37 µM) | < 0.008 | 0.03 (≈ 0.0553 µM) | 0.03 (≈ 0.0553 µM) | 0.03 (≈ 0.0553 µM) | < 0.008 | 1 (≈ 1.84 µM) | 16 (≈ 29.5 µM) | 2 (≈ 3.69 µM) | < 0.008 | 2 (≈ 3.69 µM) | 32 (≈ 59 µM) | > 128 | 
CO/N=C(\C(=O)NC1C(=O)N2C(C(=O)[O-])=C(C[n+]3ccc4sc(C)nc4c3)CSC12)c1csc(N)n1 (stereo not drawn) [Example 13] |  | < 0.008 | 8 (≈ 14.7 µM) | 0.015 (≈ 0.0275 µM) | 8 (≈ 14.7 µM) | 2 (≈ 3.67 µM) | 8 (≈ 14.7 µM) | 2 (≈ 3.67 µM) | 0.015 (≈ 0.0275 µM) | 0.03 (≈ 0.055 µM) | 0.03 (≈ 0.055 µM) | 0.03 (≈ 0.055 µM) | 0.015 (≈ 0.0275 µM) | 1 (≈ 1.83 µM) | 8 (≈ 14.7 µM) | 1 (≈ 1.83 µM) | 0.015 (≈ 0.0275 µM) | 2 (≈ 3.67 µM) | 32 (≈ 58.6 µM) | > 128 | MIC (H. influ. 76): 0.03 µg/mL (≈ 0.055 µM); MIC (H. influ. C.L.): 0.03 µg/mL (≈ 0.055 µM)
CCc1nc2c[n+](CC3=C(C(=O)[O-])N4C(=O)C(NC(=O)/C(=N\OC)c5csc(N)n5)C4SC3)ccc2s1 (stereo not drawn) [Example 14, syn-7-[2-(2-aminothiazol-4-yl)-2-methoxyiminoacetamido]-3-(2-ethylthiazolo[4,5-c]pyridinium-5-ylmethyl)-3-cephem-4-carboxylate] |  | < 0.008 | 4 (≈ 7.15 µM) | < 0.008 | 4 (≈ 7.15 µM) | 2 (≈ 3.57 µM) | 4 (≈ 7.15 µM) | 4 (≈ 7.15 µM) | 0.015 (≈ 0.0268 µM) | 0.03 (≈ 0.0536 µM) | 0.03 (≈ 0.0536 µM) |  | < 0.008 | 1 (≈ 1.79 µM) | 4 (≈ 7.15 µM) | 1 (≈ 1.79 µM) | 0.015 (≈ 0.0268 µM) | 2 (≈ 3.57 µM) | 32 (≈ 57.2 µM) | > 128 | MIC (H. influ. 76): 0.015 µg/mL (≈ 0.0268 µM)
